Laboratory results published in ChEMBL document CHEMBL1201862, “PubChem BioAssay data set” (2004).
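Tested at 5 concentrations; 48 h exposure; 96-well plates; endpoints linearly interpolated, else capped at highest concentration. Abbreviation: GI50, concentration required for 50% inhibition of growth.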 The source made the active and inactive calls. Cut-off read from the data, not from the text of the source: active = GI50 up to about 1.1 µM and inactive = higher.

Tests used:
Experiment in all cases: NCI anticancer screen, dose series, 48 h
[1] = tested on: SF-295
[2] = tested on: A498
[3] = tested on: COLO 205
[4] = tested on: ACHN
[5] = tested on: SK-MEL-5
[6] = tested on: SK-MEL-28
[7] = tested on: OVCAR-8
[8] = tested on: 786-0
[9] = tested on: SN12C
[10] = tested on: SNB-75
[11] = tested on: SK-OV-3
[12] = tested on: CCRF-CEM
[13] = tested on: HCT-15
[14] = tested on: SF-268
[15] = tested on: UACC-62
[16] = tested on: A549
[17] = tested on: SR
[18] = tested on: HCT-116

Structure (SMILES)	GI50 [1]	GI50 [2]	GI50 [3]	GI50 [4]	GI50 [5]	GI50 [6]	GI50 [7]	GI50 [8]	GI50 [9]	GI50 [10]	GI50 [11]	GI50 [12]	GI50 [13] [µM]	GI50 [14]	GI50 [15]	GI50 [16]	GI50 [17]	GI50 [18]
CCCCCCCCCOC(=S)NC	27.8 µM (inactive)	20.1 µM (inactive)	22.8 µM (inactive)	19.3 µM (inactive)	19.1 µM (inactive)	22.3 µM (inactive)	18.8 µM (inactive)	18.2 µM (inactive)	18.4 µM (inactive)	26.1 µM (inactive)	24.5 µM (inactive)	19.7 µM (inactive)	18.7	19.5 µM (inactive)	23.2 µM (inactive)	24.8 µM (inactive)	–	–
NNC(=O)CCC(=O)Nc1ccc(Cl)cc1Cl	> 100 µM (inactive)	> 100 µM (inactive)	> 100 µM (inactive)	> 100 µM (inactive)	> 100 µM (inactive)	> 100 µM (inactive)	> 100 µM (inactive)	> 100 µM (inactive)	> 100 µM (inactive)	> 100 µM (inactive)	> 100 µM (inactive)	> 100 µM (inactive)	66.2	> 100 µM (inactive)	28.8 µM (inactive)	> 100 µM (inactive)	6.68 µM (inactive)	> 100 µM (inactive)
O=[N+]([O-])c1cccc(/C=N\NS(=O)(=O)c2ccc(Cl)cc2)c1O	> 100 µM (inactive)	> 100 µM (inactive)	69.8 µM (inactive)	98.6 µM (inactive)	73.1 µM (inactive)	46.9 µM (inactive)	79.4 µM (inactive)	> 100 µM (inactive)	> 100 µM (inactive)	> 100 µM (inactive)	> 100 µM (inactive)	31.7 µM (inactive)	52.5	> 100 µM (inactive)	49.7 µM (inactive)	> 100 µM (inactive)	18.7 µM (inactive)	50.4 µM (inactive)
Cc1cc(Cl)ccc1NC(=O)C(=O)Cc1nc2ccc(C(=O)c3ccccc3)cc2nc1O	95.1 µM (inactive)	–	> 100 µM (inactive)	> 100 µM (inactive)	79.6 µM (inactive)	> 100 µM (inactive)	> 100 µM (inactive)	> 100 µM (inactive)	> 100 µM (inactive)	> 100 µM (inactive)	> 100 µM (inactive)	35.6 µM (inactive)	> 100	> 100 µM (inactive)	70 µM (inactive)	75.3 µM (inactive)	7.4 µM (inactive)	> 100 µM (inactive)
COC(=O)N/N=C/c1oc(-c2cccc([N+](=O)[O-])c2)c(-c2cccc([N+](=O)[O-])c2)c1[N+](=O)[O-]	> 100 µM (inactive)	–	> 100 µM (inactive)	> 100 µM (inactive)	> 100 µM (inactive)	> 100 µM (inactive)	> 100 µM (inactive)	> 100 µM (inactive)	> 100 µM (inactive)	–	> 100 µM (inactive)	22.1 µM (inactive)	> 100	> 100 µM (inactive)	59.8 µM (inactive)	> 100 µM (inactive)	40.7 µM (inactive)	> 100 µM (inactive)
N=C(N)NCCCC(Nc1c2ccccc2[n+]([O-])c2ccccc12)C(=O)O (stereo not given)	> 100 µM (inactive)	> 100 µM (inactive)	27.3 µM (inactive)	23.1 µM (inactive)	22.6 µM (inactive)	27.2 µM (inactive)	31.6 µM (inactive)	67.5 µM (inactive)	44.1 µM (inactive)	34.8 µM (inactive)	> 100 µM (inactive)	33.4 µM (inactive)	36.8	56.4 µM (inactive)	42.5 µM (inactive)	> 100 µM (inactive)	–	24.9 µM (inactive)
O=C(Nc1cc(Cl)ccc1Cl)c1cc2cccc(Br)c2oc1=O	63.4 µM (inactive)	–	> 100 µM (inactive)	> 100 µM (inactive)	> 100 µM (inactive)	> 100 µM (inactive)	57.1 µM (inactive)	> 100 µM (inactive)	> 100 µM (inactive)	34.9 µM (inactive)	> 100 µM (inactive)	> 100 µM (inactive)	> 100	–	> 100 µM (inactive)	> 100 µM (inactive)	–	> 100 µM (inactive)
CCCCNC(=S)OCCC(C)CCCC(C)C (stereo not given)	> 100 µM (inactive)	> 100 µM (inactive)	–	> 100 µM (inactive)	> 100 µM (inactive)	87.9 µM (inactive)	> 100 µM (inactive)	> 100 µM (inactive)	> 100 µM (inactive)	35.3 µM (inactive)	> 100 µM (inactive)	> 100 µM (inactive)	> 100	> 100 µM (inactive)	> 100 µM (inactive)	> 100 µM (inactive)	> 100 µM (inactive)	> 100 µM (inactive)
CCN(CC)CC(=O)NC1c2ccccc2Oc2ccccc21	–	–	> 100 µM (inactive)	–	> 100 µM (inactive)	> 100 µM (inactive)	> 100 µM (inactive)	> 100 µM (inactive)	> 100 µM (inactive)	> 100 µM (inactive)	> 100 µM (inactive)	> 100 µM (inactive)	> 100	> 100 µM (inactive)	> 100 µM (inactive)	> 100 µM (inactive)	> 100 µM (inactive)	> 100 µM (inactive)
N#CCCN(c1ccc(/C=C2\N=C(Cc3ccccc3)OC2=O)cc1)S(=O)(=O)c1ccccc1	> 100 µM (inactive)	> 100 µM (inactive)	> 100 µM (inactive)	> 100 µM (inactive)	> 100 µM (inactive)	> 100 µM (inactive)	> 100 µM (inactive)	> 100 µM (inactive)	> 100 µM (inactive)	> 100 µM (inactive)	> 100 µM (inactive)	> 100 µM (inactive)	> 100	> 100 µM (inactive)	> 100 µM (inactive)	> 100 µM (inactive)	–	> 100 µM (inactive)
O=C(CCC/C(CC(=O)c1ccc(Br)cc1)=N\O)Nc1ccccc1	> 100 µM (inactive)	–	> 100 µM (inactive)	96.6 µM (inactive)	43.3 µM (inactive)	> 100 µM (inactive)	> 100 µM (inactive)	> 100 µM (inactive)	> 100 µM (inactive)	> 100 µM (inactive)	–	70.3 µM (inactive)	–	> 100 µM (inactive)	46 µM (inactive)	> 100 µM (inactive)	–	> 100 µM (inactive)
O=C(CN1CCN(c2cccc(Cl)c2)CC1)N1CCc2c([nH]c3ccccc23)C1c1cccnc1 (stereo not given)	8.53 µM (inactive)	20.5 µM (inactive)	–	8.87 µM (inactive)	11.9 µM (inactive)	12.2 µM (inactive)	19.4 µM (inactive)	11.8 µM (inactive)	9.57 µM (inactive)	7.62 µM (inactive)	> 100 µM (inactive)	3.15 µM (inactive)	5.25	13.1 µM (inactive)	11.3 µM (inactive)	7.13 µM (inactive)	2.23 µM (inactive)	4.5 µM (inactive)
C/C(CC(=O)Nc1cccc([N+](=O)[O-])c1)=N\NC(=O)C[n+]1ccccc1	> 100 µM (inactive)	–	> 100 µM (inactive)	–	> 100 µM (inactive)	> 100 µM (inactive)	> 100 µM (inactive)	> 100 µM (inactive)	–	> 100 µM (inactive)	> 100 µM (inactive)	> 100 µM (inactive)	–	> 100 µM (inactive)	> 100 µM (inactive)	> 100 µM (inactive)	–	> 100 µM (inactive)
O=c1[nH]n(Cc2ccccn2)c2ccc([N+](=O)[O-])cc12	–	> 100 µM (inactive)	> 100 µM (inactive)	> 100 µM (inactive)	> 100 µM (inactive)	> 100 µM (inactive)	> 100 µM (inactive)	> 100 µM (inactive)	> 100 µM (inactive)	> 100 µM (inactive)	–	> 100 µM (inactive)	> 100	> 100 µM (inactive)	> 100 µM (inactive)	> 100 µM (inactive)	> 100 µM (inactive)	> 100 µM (inactive)
COc1ccc(-n2/c(=N/C(=S)N(C)C)ss/c2=N\C(=S)N(C)C)cc1	68.4 µM (inactive)	> 100 µM (inactive)	48 µM (inactive)	> 100 µM (inactive)	–	9.35 µM (inactive)	37 µM (inactive)	32.7 µM (inactive)	> 100 µM (inactive)	22.8 µM (inactive)	27.8 µM (inactive)	–	> 100	77.1 µM (inactive)	4.21 µM (inactive)	> 100 µM (inactive)	> 100 µM (inactive)	13 µM (inactive)
CC(=O)Nc1ccc(/C=C/C(=O)c2sc(-c3cccnc3)nc2C)cc1	> 100 µM (inactive)	> 100 µM (inactive)	> 100 µM (inactive)	> 100 µM (inactive)	> 100 µM (inactive)	> 100 µM (inactive)	> 100 µM (inactive)	> 100 µM (inactive)	> 100 µM (inactive)	> 100 µM (inactive)	> 100 µM (inactive)	> 100 µM (inactive)	> 100	> 100 µM (inactive)	> 100 µM (inactive)	> 100 µM (inactive)	–	–
CSc1cccc(-n2c3nc(=O)n(C)c(=O)c-3nc3ccccc32)c1	10.8 µM (inactive)	12.6 µM (inactive)	2.94 µM (inactive)	0.735 µM (active)	1.25 µM (inactive)	17.4 µM (inactive)	8.83 µM (inactive)	4.92 µM (inactive)	5.38 µM (inactive)	14.5 µM (inactive)	35.3 µM (inactive)	11 µM (inactive)	5.02	16.6 µM (inactive)	1.95 µM (inactive)	2.65 µM (inactive)	–	7.29 µM (inactive)
